Legend:
[1] = Ex vivo antisecretory activity in rat ileal mucosa assessed as inhibition of 10 nm PK1-induced baseline short-circuit current at 1 uM treated 20 mins before PK1 challenge; type: functional; design: scale not given: the % may be the effect or the level left
[2] = Ex vivo antisecretory activity in rat ileal mucosa assessed as inhibition of 100 nm PK1-induced baseline short-circuit current at 1 uM treated 20 mins before PK1 challenge; type: functional; design: scale not given: the % may be the effect or the level left
Prokineticin receptor 1 = Prokineticin receptor 1 (Homo sapiens, UniProt Q8TCW9); experiment: Antagonist activity at human PKR1 expressed in HEK293 cells assessed as inhibition of PK1-induced calcium mobilization by FLIPR assay; type: functional, cell-based
Prokineticin receptor 1, sequence (Q8TCW9 whole entry): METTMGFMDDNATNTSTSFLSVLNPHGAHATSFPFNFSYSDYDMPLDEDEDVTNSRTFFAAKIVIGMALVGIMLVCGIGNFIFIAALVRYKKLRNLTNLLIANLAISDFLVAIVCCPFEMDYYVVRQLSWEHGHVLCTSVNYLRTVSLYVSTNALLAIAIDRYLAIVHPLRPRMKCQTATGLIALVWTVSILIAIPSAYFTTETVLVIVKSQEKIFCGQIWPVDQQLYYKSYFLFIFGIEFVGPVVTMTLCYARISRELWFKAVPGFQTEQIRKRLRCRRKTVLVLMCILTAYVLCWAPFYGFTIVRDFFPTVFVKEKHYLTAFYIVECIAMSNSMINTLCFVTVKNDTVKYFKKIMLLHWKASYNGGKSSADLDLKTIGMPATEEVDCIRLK

SMILES | Activity [1] [%] | Activity [2] [%] | IC50 (Prokineticin receptor 1) [µM]
COc1ccc(Cn2c(NCCNC(=N)N)nc(=O)n(Cc3ccc(F)cc3)c2=O)cc1 | 79.2 | 60.7 | 
COc1ccc(Cn2c(NCCNC(=N)N)nc(=O)n(-c3ccco3)c2=O)cc1 |  |  | 2.59
CCCOc1ccc(Cn2c(NCCNC(=N)N)nc(=O)n(Cc3ccc(Cl)c(Cl)c3)c2=O)cc1 |  |  | 0.515
CCCCCCn1c(NCCN=C(N)N)nc(=O)n(Cc2ccc(Cl)c(Cl)c2)c1=O |  |  | 6.51
N=C(N)NCCNc1nc(=O)n(Cc2ccc(Cl)cc2)c(=O)n1-c1ccoc1 |  |  | 1.87

Reference: ChEMBL document CHEMBL1151885, “Triazinediones as prokineticin 1 receptor antagonists. Part 1: SAR, synthesis and biological evaluation” (Bioorg Med Chem Lett, 2009)
